Source: patent US9040530B2, “1,2,4-triazine-6-carboxamide kinase inhibitors” (Portola Pharmaceuticals, Inc., priority 2012, dated 2015)

Each compound was assayed against T1, full length active recombinant SYK enzyme (Homo sapiens, UniProt P43405) (assay: Inhibition of Syk tyrosine phosphorylation activity (LANCE TR-FRET kinase assay)). Settings: 1 nM active SYK enzyme, 550 nM SYK-substrate, 100 μM ATP, 1 hour at room temperature.
T1 construct: full length active recombinant SYK enzyme (Millipore, Calif.); purchased Millipore
Format: biochemical
Protocol: The in vitro and in vivo human Syk activities of the inventive compounds can be determined by various procedures known in the art, such as a test for their ability to inhibit the activity of human plasma Syk.
Inhibition of Syk Tyrosine Phosphorylation Activity
SYK tyrosine phosphorylation activity is measured using the LANCE™ Technology developed by Perkin Elmer Life and Analytical Sciences (Boston, Mass.). LANCE™ refers to homogeneous time resolved fluorometry applications using techniques such as time-resolved fluorescence resonance energy transfer assay (TR-FRET) (see generally for procedures in Perkin Elmer Application Note—How to Optimize a Tyrosine Kinase Assay Using Time Resolved Fluorescence-Based LANCE Detection, wwww.perkinelmer.com/lifesciences). The assay principle involves detection of a phosphorylated substrate using energy transfer from a phosphospecific europium-labeled antibody to streptavidin-allophycocyanin as an acceptor.
Molecules are reconstituted in 30% DMSO and serially diluted 1:3 with the final dilution containing DMSO in the absence of the candidate molecule. The final DMSO concentration in the assay is 3%. Kinase assays are performed as a two part reaction. […] The second reaction involves termination of the kinase reaction and the simultaneous addition of the detection reagents-europium-labeled anti-phosphotyrosine reagent (Eu-W1024-PY100, Perkin Elmer, Boston, Mass.) and Streptavidin-Allophycocyanin detection reagent (SA-APC, Prozyme, CA). The kinase reaction is performed in a black U-bottom 96-well microtitre plate. […] The reaction is allowed to proceed for 1 hour at room temperature. The quench buffer contains 100 mM Tris pH 7.5, 300 mM […], 20 mM EDTA, 0.02% Brij35, and 0.5% BSA. The detection reagents are added to the reaction mixture at the following dilutions-1:500 for Eu-W1024-PY100 and 1:250 for SA-APC. The kinase reaction is terminated by the addition of 50 μL quench buffer containing the detection reagents. The detection is allowed to proceed for 1 hr at room temperature. Detection of the phosphorlated substrate in the absence and presence of inhibitors is measured in the TR-FRET instrument, Analyst HT (Molecular Probes, Sunnyvale, Calif.) and the condition for measurements are set up using CriterionHost Release 2.0 (Molecular Probes, Sunnyvale, Calif.). […] IC50s were derived by non-linear regression analysis.

IC50 [nM]	Structure (SMILES)
100 to 1000	CC[C@@H](Nc1nnc(C(N)=O)c(Nc2ccc(C)c(C#N)c2)n1)C(N)=O [Example 234, (R)-3-((1-amino-1-oxobutan-2-yl)amino)-5-((3-cyano-4-methylphenyl)amino)-1,2,4-triazine-6-carboxamide]
100 to 1000	N#Cc1ccccc1Nc1nc(N[C@@H]2CCCC[C@@H]2N)nnc1C(N)=O [Example 115, 3-(((1R,2S)-2-aminocyclohexyl)amino)-5-((2-cyanophenyl)amino)-1,2,4-triazine-6-carboxamide]
1 to 10	NC(=O)c1nnc(N[C@@H]2CCCC[C@@H]2N)nc1Nc1ccccc1 [Example 69, 3-(((1R,2S)-2-aminocyclohexyl)amino)-5-(phenylamino)-1,2,4-triazine-6-carboxamide]
1 to 10	NC(=O)c1nnc(N[C@@H]2CCOC[C@@H]2N)nc1Nc1cccc(-n2nccn2)c1 [Example 85, 5-((3-(2H-1,2,3-triazol-2-yl)phenyl)amino)-3-(((3R,4R)-3-aminotetrahydro-2H-pyran-4-yl)amino)-1,2,4-triazine-6-carboxamide]
< 1	Cc1cccc(Nc2nc(N[C@@H]3CCCC[C@@H]3N)nnc2C(N)=O)c1 [Example 11, 3-(((1R,2S)-2-aminocyclohexyl)amino)-5-(m-tolylamino)-1,2,4-triazine-6-carboxamide]
1 to 10	CC[C@@H](Nc1nnc(C(N)=O)c(Nc2ccc3ncccc3c2)n1)C(N)=O [Example 51, (R)-3-((1-amino-1-oxobutan-2-yl)amino)-5-(quinolin-6-ylamino)-1,2,4-triazine-6-carboxamide]
100 to 1000	NC(=O)c1nnc(N[C@@H]2CCCC[C@@H]2N)nc1Nc1cc(-c2ccc(F)cc2)on1 [Example 127, 3-(((1R,2S)-2-aminocyclohexyl)amino)-5-((5-(4-fluorophenyl)isoxazol-3-yl)amino)-1,2,4-triazine-6-carboxamide]
10 to 100	Cc1cc(Nc2nc(N[C@@H]3CCOC[C@@H]3N)nnc2C(N)=O)sn1 [Example 142, 3-(((3R,4R)-3-aminotetrahydro-2H-pyran-4-yl)amino)-5-((3-methylisothiazol-5-yl)amino)-1,2,4-triazine-6-carboxamide]
1 to 10	Cc1cc(F)cc(Nc2nc(N[C@@H]3CCCC[C@@H]3N)nnc2C(N)=O)c1 [Example 22, 3-(((1R,2S)-2-aminocyclohexyl)amino)-5-((3-fluoro-5-methylphenyl)amino)-1,2,4-triazine-6-carboxamide]
10 to 100	Cn1ncc2c(Nc3nc(N[C@@H]4CCCC[C@@H]4N)nnc3C(N)=O)ccnc21 [Example 104, 3-(((1R,2S)-2-aminocyclohexyl)amino)-5-((1-methyl-1H-pyrazolo[3,4-b]pyridin-4-yl)amino)-1,2,4-triazine-6-carboxamide]
10 to 100	Cc1ccc(Nc2nc(N[C@@H]3CCCC(F)(F)[C@@H]3N)nnc2C(N)=O)cc1F [Example 205, 3-(((1R,2R)-2-amino-3,3-difluorocyclohexyl)amino)-5-((3-fluoro-4-methylphenyl)amino)-1,2,4-triazine-6-carboxamide]
1 to 10	Cn1ccc2cc(Nc3nc(N[C@@H]4CCCC[C@@H]4N)nnc3C(N)=O)ccc21 [Example 118, 3-(((1R,2S)-2-aminocyclohexyl)amino)-5-((1-methyl-1H-indol-5-yl)amino)-1,2,4-triazine-6-carboxamide]
1 to 10	Cc1cc(Nc2nc(N[C@@H]3CCOC[C@@H]3N)nnc2C(N)=O)ccc1Cl [Example 224, 3-(((3R,4R)-3-aminotetrahydro-2H-pyran-4-yl)amino)-5-((4-chloro-3-methylphenyl)amino)-1,2,4-triazine-6-carboxamide]
1 to 10	Cn1cc(C#N)c2ccc(Nc3nc(N[C@H](CC(F)F)C(N)=O)nnc3C(N)=O)cc21 [Example 147, (R)-3-((1-amino-4,4-difluoro-1-oxobutan-2-yl)amino)-5-((3-cyano-1-methyl-1H-indol-6-yl)amino)-1,2,4-triazine-6-carboxamide]
10 to 100	NC(=O)c1nnc(N[C@@H]2CCCC[C@@H]2N)nc1Nc1ccc2nccn2c1 [Example 44, 3-(((1R,2S)-2-aminocyclohexyl)amino)-5-(imidazo[1,2-a]pyridin-6-ylamino)-1,2,4-triazine-6-carboxamide]
100 to 1000	NC(=O)c1nnc(N[C@@H]2CCCC[C@@H]2N)nc1Nc1ccc(N2CCOCC2=O)cc1 [Example 34, 3-(((1R,2S)-2-aminocyclohexyl)amino)-5-((4-(3-oxomorpholino)phenyl)amino)-1,2,4-triazine-6-carboxamide]
1 to 10	NC(=O)c1nnc(N[C@H](CC(F)(F)F)C(N)=O)nc1Nc1ccc2ncccc2c1 [Example 149, (R)-3-((1-amino-4,4,4-trifluoro-1-oxobutan-2-yl)amino)-5-(quinolin-6-ylamino)-1,2,4-triazine-6-carboxamide]
< 1	Cn1ncc2ccc(Nc3nc(N[C@@H]4CCCC[C@@H]4N)nnc3C(N)=O)cc21 [Example 182, 3-(((1R,2S)-2-aminocyclohexyl)amino)-5-((1-methyl-1H-indazol-6-yl)amino)-1,2,4-triazine-6-carboxamide]
1 to 10	COc1cc(Nc2nc(N[C@@H]3CCCC[C@@H]3N)nnc2C(N)=O)ccn1 [Example 68, 3-(((1R,2S)-2-aminocyclohexyl)amino)-5-((2-methoxypyridin-4-yl)amino)-1,2,4-triazine-6-carboxamide]
10 to 100	CC[C@@H](Nc1nnc(C(N)=O)c(Nc2ccc3c(c2)CCOC3)n1)C(N)=O [Example 212, (R)-3-((1-amino-1-oxobutan-2-yl)amino)-5-(isochroman-6-ylamino)-1,2,4-triazine-6-carboxamide]
10 to 100	Cc1ccc(Nc2nc(N[C@@H]3CCCC(F)(F)[C@@H]3N)nnc2C(N)=O)cc1Cl [Example 219, 3-(((1R,2R)-2-amino-3,3-difluorocyclohexyl)amino)-5-((3-chloro-4-methylphenyl)amino)-1,2,4-triazine-6-carboxamide]
1 to 10	Cc1ccc(Nc2nc(N[C@@H]3CCOC[C@@H]3N)nnc2C(N)=O)cc1C [Example 145, 3-(((3R,4R)-3-aminotetrahydro-2H-pyran-4-yl)amino)-5-((3,4-dimethylphenyl)amino)-1,2,4-triazine-6-carboxamide]
10 to 100	Cc1ccc(Nc2nc(N[C@@H]3CCOC[C@@H]3N)nnc2C(N)=O)cc1 [Example 9, 3-(((3R,4R)-3-aminotetrahydro-2H-pyran-4-yl)amino)-5-(p-tolylamino)-1,2,4-triazine-6-carboxamide]
1 to 10	Cc1ccc(Nc2nc(N[C@@H]3CCCC[C@@H]3N)nnc2C(N)=O)cc1F [Example 19, 3-(((1R,2S)-2-aminocyclohexyl)amino)-5-((3-fluoro-4-methylphenyl)amino)-1,2,4-triazine-6-carboxamide]
10 to 100	NC(=O)c1nnc(N[C@@H]2CCCC[C@@H]2N)nc1Nc1cnc2cccnc2c1 [Example 258, 5-((1,5-naphthyridin-3-yl)amino)-3-(((1R,2S)-2-aminocyclohexyl)amino)-1,2,4-triazine-6-carboxamide]
100 to 1000	CC[C@@H](Nc1nnc(C(N)=O)c(Nc2ccc(C#N)cc2)n1)C(N)=O [Example 74, (R)-3-((1-amino-1-oxobutan-2-yl)amino)-5-((4-cyanophenyl)amino)-1,2,4-triazine-6-carboxamide]
< 1	Cn1ccc2c(Nc3nc(N[C@@H]4CCCC[C@@H]4N)nnc3C(N)=O)ccnc21 [Example 129, 3-(((1R,2S)-2-aminocyclohexyl)amino)-5-((1-methyl-1H-pyrrolo[2,3-b]pyridin-4-yl)amino)-1,2,4-triazine-6-carboxamide]
10 to 100	CC(C)[C@@H](Nc1nnc(C(N)=O)c(Nc2ccc3ncccc3c2)n1)C(N)=O [Example 52, (R)-3-((1-amino-3-methyl-1-oxobutan-2-yl)amino)-5-(quinolin-6-ylamino)-1,2,4-triazine-6-carboxamide]
1 to 10	NC(=O)c1nnc(N[C@@H]2CCCC[C@@H]2N)nc1Nc1ccc(N2CCOCC2)c(F)c1 [Example 30, 3-(((1R,2S)-2-aminocyclohexyl)amino)-5-((3-fluoro-4-morpholinophenyl)amino)-1,2,4-triazine-6-carboxamide]
10 to 100	CC[C@@H](Nc1nnc(C(N)=O)c(Nc2ccc(C(F)(F)F)c(Cl)c2)n1)C(N)=O [Example 241, (R)-3-((1-amino-1-oxobutan-2-yl)amino)-5-((3-chloro-4-(trifluoromethyl)phenyl)amino)-1,2,4-triazine-6-carboxamide]
